The values below come from PubChem BioAssay AID504610 (National Center for Advancing Translational Sciences (NCATS), 2011).

The subject of this series is mouse plasma stability, LC-MS/MS, 48 h. The series is described as follows: Inhibitors of 12-hLO: Mouse Plasma Stability Profiling. To be noted: at 2 µM; active compounds read high. An excerpt:
Assay Provider: Holman, T.R., University of California, Santa Cruz Grant #: MH08128301 Screening Center PI: Austin, C.P. Screening Center: NIH Chemical Genomics Center [NCGC] Human lipoxygenase 12hLO is a member of the closely related lipoxygenase family of enzymes which catalyze the site-specific oxidation of arachidonic acid to various hormone precursor molecules and as such is a candidate for drug development in a variety of disease areas, such as cancer and inflammation. After qHTS, hits were confirmed in follow-up assays, and leads were optimized through SAR. The resulting lead compound was further characterized through a battery ADME-Tox experiments, and this assay describes its stability in mouse plasma. The stability of the lead compound in […] is tested because this parameter has a significant impact on many ADME-concerned properties of drugs, such as uptake, distribution, transport, and eventually bioavailability.
2microM of compound is incubated in PBS buffer at pH 7; the reference compound is procaine. Compounds are incubated at 37 deg C for the pre-determined time periods and the when aliquots are removed. Samples are analyzed with LC-MS/MS.

As to `CC(=O)NC(c1cccs1)c1cc(Br)c2cccnc2c1O` (stereo unspecified), the percent remaining is 98.3%.
